Measured values published in ChEMBL document CHEMBL1141670, “QSAR analysis of 1,3-diaryl-4,5,6,7-tetrahydro-2H-isoindole derivatives as selective COX-2 inhibitors” (Eur J Med Chem, 2008).

The compounds below were run against T1, Prostaglandin G/H synthase 2 (Mus musculus, UniProt Q05769) (assay: Inhibition of mouse macrophage COX2).
T1 sequence (Q05769 whole entry): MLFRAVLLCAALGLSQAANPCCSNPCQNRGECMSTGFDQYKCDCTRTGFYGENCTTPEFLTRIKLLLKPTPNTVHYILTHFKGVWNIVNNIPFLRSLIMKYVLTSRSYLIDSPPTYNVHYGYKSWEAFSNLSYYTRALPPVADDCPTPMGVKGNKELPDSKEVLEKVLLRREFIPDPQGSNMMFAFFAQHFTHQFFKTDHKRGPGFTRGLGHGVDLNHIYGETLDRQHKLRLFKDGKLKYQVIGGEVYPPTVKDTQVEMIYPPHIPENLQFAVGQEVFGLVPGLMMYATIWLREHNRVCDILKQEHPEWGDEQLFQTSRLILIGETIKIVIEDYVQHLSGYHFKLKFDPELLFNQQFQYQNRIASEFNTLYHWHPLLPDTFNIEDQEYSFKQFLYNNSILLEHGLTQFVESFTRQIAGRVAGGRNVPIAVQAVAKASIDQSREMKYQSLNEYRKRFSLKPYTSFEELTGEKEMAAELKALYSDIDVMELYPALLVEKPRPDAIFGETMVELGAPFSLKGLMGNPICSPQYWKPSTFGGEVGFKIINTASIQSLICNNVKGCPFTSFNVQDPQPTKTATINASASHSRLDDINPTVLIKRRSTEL
`Cc1ccc(-c2[nH]c(-c3ccc(C)cc3)c3c2CCCC3)cc1` showed an IC50 of 16.7 nM. For `CS(=O)(=O)c1ccc(-c2[nH]c(-c3ccc(S(C)(=O)=O)cc3)c3c2C2CCC3C2)cc1`, the IC50 was 10000 nM. `CC1=C(C)Cc2c(c(-c3ccccc3)n(C)c2-c2ccccc2)C1` was tested, and the IC50 was 1000 nM.
